Assay results as given in US7737166B2, “Antifungal bicyclic hetero ring compounds” (Daiichi Sankyo Company, Limited, priority 2005, dated 2010).
Converted amounts (≈) assume the structure as drawn.

What was measured:
C. albicans ATCC MYA-573 = assay: Antifungal activity (GI80), growth inhibition in YPD20 medium by absorbance at 600 nm; format: cell-based; details: Candida albicans, minimum concentration for at least 80% cell growth inhibition, 37° C., absorbance 600 nm, read-out: GI80 (μg/ml) C. albicans ATCC MYA-573
Description: (§1) The antifungal activity of the compounds of the invention was determined according to the method mentioned below.
(§2) An YPD20 medium (1% yeast extract, 2% peptone, 20% glucose) was used,
(§3) (2) Preparation of Cell Liquid for Inoculation:
(§4) Cells incubated overnight with Sabouraud dextrose agar at 30° C. were suspended in 0.1% Tween 80-added saline, and then added to a concentrated medium (1.33% yeast extract, 2.67% peptone, 13.33% glucose) so that the final cell concentration could be 5×10^3 cells/ml, thereby preparing a cell liquid for inoculation.
(§5) (3) Production of Chemical Dilution Plate:
(§6) A metered sample was dissolved in dimethyl sulfoxide, and a 2-fold dilution series was prepared using dimethyl sulfoxide. A chemical dilution of 2 μl each was added to a flat-bottom 96-well plate with 40% glucose (48 μl) put in each well, thereby producing a chemical dilution plate.
(§7) (4) Inoculation and Cultivation of Cell Liquid:
(§8) The cell liquid (150 μl) prepared in (2) was added to the chemical dilution plate produced in (3), followed by aerobic static cultivation at 37° C.
(§9) (5) Determination of Antifungal Activity (GI80 Value):
(§10) After cultivation for […], the plate was stirred, and its absorbance (600 nm) was measured. Based on the absorbance as the index, the minimum chemical concentration for at least 80% cell growth inhibition relative to the cell growth in the chemical-free well was computed as a GI80 value.

C. albicans ATCC90028 = assay: as above; format: cell-based; details: Candida albicans, ATCC90028, minimum concentration for at least 80% cell growth inhibition, 37° C., absorbance 600 nm, read-out: GI80 (μg/ml) C. albicans ATCC90028
Description: as §1, §2, §3, §4, §5, §6, §7, §8, §9, §10

C. glabrata ATCC48435 = assay: as above; format: cell-based; details: Nakaseomyces glabratus, ATCC48435, minimum concentration for at least 80% cell growth inhibition, 37° C., absorbance 600 nm, read-out: GI80 (μg/ml) C. glabrata ATCC48435
Description: as §1, §2, §3, §4, §5, §6, §7, §8, §9, §10

SMILES	melting point	IC80 (C. albicans ATCC MYA-573) [µg/mL]	IC80 (C. albicans ATCC90028) [µg/mL]	IC80 (C. glabrata ATCC48435) [µg/mL]
CN[C@H]1CCN(c2c(-c3ccccc3)c(C)c(C#N)c3nc(C(C)(C)C)oc23)C1.Cl [Example 2, 2-tert-Butyl-5-methyl-7-[(3S)-3-(methylamino)pyrrolidin-1-yl]-6-phenyl-1,3-benzoxazole-4-carbonitrile hydrochloride]	237 to 240 °C (dec.)	0.25	0.5	0.125
Cc1c(-c2cccn2C)c(N2CC[C@H](N(C)C)C2)c2oc(C3CC3)nc2c1C#N [Example 22, 2-Cyclopropyl-7-[(3S)-3-(dimethylamino)pyrrolidin-1-yl]-5-methyl-6-(1-methyl-1H-pyrrol-2-yl)-1,3-benzoxazole-4-carbonitrile]	127 to 128 °C	1 (≈ 2.57 µM)	0.5 (≈ 1.28 µM)	0.5 (≈ 1.28 µM)
Cc1nc(-c2c(C)c(C#N)c3nc(C4CC4)oc3c2N2CC[C@H](N(C)C)C2)cs1 [Example 23, 2-Cyclopropyl-7-[(3S)-3-(dimethylamino)pyrrolidin-1-yl]-5-methyl-6-(2-methyl-1,3-thiazol-4-yl)-1,3-benzoxazole-4-carbonitrile]	167 to 168 °C	1 (≈ 2.45 µM)	1 (≈ 2.45 µM)	0.5 (≈ 1.23 µM)
CN[C@H]1CCN(c2c(-c3ccccc3)c(C)c(C#N)c3nc(C(=O)N(C)C)oc23)C1 [Example 40-1, 4-Cyano-N,N,5-trimethyl-7-[(3S)-3-(methylamino)pyrrolidin-1-yl]-6-phenyl-1,3-benzoxazole-2-carboxamide]	148 to 151 °C	0.25 (≈ 0.62 µM)	0.25 (≈ 0.62 µM)	0.032 (≈ 0.0793 µM)
Cc1nc(-c2c(C)c(C#N)c3nc(C(=O)N(C)C)oc3c2N2CC[C@H](N(C)C)C2)cs1 [Example 51, 4-Cyano-7-[(3S)-3-(dimethylamino)pyrrolidin-1-yl]-N,N,5-trimethyl-6-(2-methyl-1,3-thiazol-4-yl)-1,3-benzoxazole-2-carboxamide]	153 to 156 °C	1 (≈ 2.28 µM)	1 (≈ 2.28 µM)	0.25 (≈ 0.57 µM)
Cc1c(-c2ccccc2N)c(N2CC[C@H](N(C)C)C2)c2oc(C3CC3)nc2c1C#N [Example 144-13, 6-(2-Aminophenyl)-2-cyclopropyl-7-[(3S)-3-(dimethylamino)pyrrolidin-1-yl]-5-methyl-1,3-benzoxazole-4-carbonitrile]	191 to 194 °C	1 (≈ 2.49 µM)	1 (≈ 2.49 µM)	0.5 (≈ 1.25 µM)
CN[C@@]1(C)CCN(c2c(-c3ccccc3)c(C)c(C#N)c3nc(C(=O)N(C)C)oc23)C1 [Example 159, 4-Cyano-N,N,5-trimethyl-7-[(3S)-3-methyl-3-(methylamino)pyrrolidin-1-yl]-6-phenyl-1,3-benzoxazole-2-carboxamide]	172 to 174 °C	0.063 (≈ 0.151 µM)	0.063 (≈ 0.151 µM)	< 0.016

More lines, main results first:

melting point	SMILES	IC80 (C. albicans ATCC MYA-573) [µg/mL]	IC80 (C. albicans ATCC90028) [µg/mL]	IC80 (C. glabrata ATCC48435) [µg/mL]
198 to 201 °C (dec.)	Cc1c(-c2ccccc2)c(N2CC[C@H](N(C)C)C2)c2oc(C(C)(C)C)nc2c1C#N.Cl [Example 1, 2-tert-Butyl-7-[(3S)-3-(dimethylamino)pyrrolidin-1-yl]-5-methyl-6-phenyl-1,3-benzoxazole-4-carbonitrile hydrochloride]	0.063	0.063	0.032
175 to 178 °C	Cc1c(-c2ccccc2)c(N2CCC(N(C)C)C2)c2oc(C(C)(C)CO)nc2c1C#N (stereo not shown) [Example 14, 7-[3-(Dimethylamino)pyrrolidin-1-yl]-2-(2-hydroxy-1,1-dimethylethyl)-5-methyl-6-phenyl-1,3-benzoxazole-4-carbonitrile]	0.25 (≈ 0.597 µM)	0.25 (≈ 0.597 µM)	0.125 (≈ 0.299 µM)
227 to 233 °C	Cc1c(-c2ccccc2)c(N2CC[C@H](N(C)C)C2)c2oc(-c3ccccn3)nc2c1C#N [Example 35, 7-[(3S)-3-(Dimethylamino)pyrrolidin-1-yl]-5-methyl-6-phenyl-2-(pyridin-2-yl)-1,3-benzoxazole-4-carbonitrile]	0.25 (≈ 0.59 µM)	0.25 (≈ 0.59 µM)	0.032 (≈ 0.0756 µM)
139 to 142 °C	Cc1c(-c2ccccc2)c(N2CC[C@H](N(C)C)C2)c2oc(C(=O)N(C)C)nc2c1C#N [Example 40, 4-Cyano-7-[(3S)-3-(dimethylamino)pyrrolidin-1-yl]-N,N,5-trimethyl-6-phenyl-1,3-benzoxazole-2-carboxamide]	0.063 (≈ 0.151 µM)	0.063 (≈ 0.151 µM)	0.016 (≈ 0.0383 µM)
48 to 51 °C	Cc1c(-c2ccccc2)c(N2CC[C@H](N(C)C)C2)c2oc(N3CC(CO)C3)nc2c1C#N [Example 98, 7-[(3S)-3-(Dimethylamino)pyrrolidin-1-yl]-2-[3-(hydroxymethyl)azetidin-1-yl]-5-methyl-6-phenyl-1,3-benzoxazole-4-carbonitrile]	0.5 (≈ 1.16 µM)	0.5 (≈ 1.16 µM)	0.125 (≈ 0.29 µM)
130 to 132 °C	Cc1c(-c2ccccc2)c(N2CC[C@H](N(C)C)C2)c2oc(C(C)(C)F)nc2c1C#N [Example 148, 7-[(3S)-3-(Dimethylamino)pyrrolidin-1-yl]-2-(1-fluoro-1-methylethyl)-5-methyl-6-phenyl-1,3-benzoxazole-4-carbonitrile]	0.063 (≈ 0.155 µM)	0.032 (≈ 0.0787 µM)	< 0.016
